# From patent US20080318892A1, “METHODS AND FORMULATIONS FOR PROTECTING CELLS, AND FOR TREATING DISEASES AND CONDITIONS BY OPTIMIZING THE INTRACELLULAR CONCENTRATION OF NAD” (priority 2007, published 2008)
# Legend:
# SIRT1 = SIRT1 deacetylase activity in live SMCs (Fluor de Lys-SIRT1 substrate, TSA-independent); type: cell-based, human; details: SMCs overexpressing Nampt; p=0.03, n=4
# Protocol: In vivo assessment of SIRT1 deacetylase activity. Cell-based assessment of SIRT1-like enzymatic activity was performed using the Fluor de lys-SIRT1 substrate (Biomol, Plymouth Meeting, Pa.), as previously described (de Boer, 2006). SMCs in phenol-red free M199 with 5% FBS were incubated for 2 h with 5 μM TSA followed by addition of the fluorogenic substrate for 4 h. Signal was quantified by spectrofluorimetry (Wallac, Wellesley, Mass.) and normalized to total protein content.
# Assessment of SIRT1 Deacetylase Activity. SIRT1 deacetylase activity was quantified in live cells as previously reported (de Boer et al, 2006). SMCs cultured in phenol red-free M199 were incubated without serum for 2 h with 1 μM trichostatin A (Sigma, St. Louis, Mo., USA) followed by addition of 25 μM Fluor-de-Lys-SIRT1 fluorogenic substrate (Biomol, Plymouth Meeting, Pa., USA) for 4 h. Media containing fluorogenic substrate and reaction product was incubated with an equal volume of SIRT1 assay buffer containing 2 mM nicotinamide and developer (Biomol, Plymouth Meeting, Pa., USA). Signal was quantified by spectrofluorometry (Wallac VICTOR-1420, PerkinElmer Life Science, Waltham, Mass., USA) and normalized to total protein content
# HDAC = experiment: Histone deacetylase (HDAC) assay in SMC lysates with [3H]-acetylated histone H4 peptide; type: biochemical, human; details: HITC6-PBEF SMC lysates, vehicle
# Protocol: HITC6 SMC's were stably transduced with pQXCIP-PURO or pQXCIP-PBEF-PURO and HDAC activity determined in cell lysates (25 μg of protein), using [^3H]histone H4 peptide as the substrate. The reactions were quenched by acid hydrolysis and catalytically released [^3H]-acetate was extracted in ethyl acetate.
# Histone Deacetylase (HDAC) Assays were employed. Histone H4 peptide (Upstate) was labeled with [^3H]-acetyl Coenzyme A (ICN) using PCAF histone acetylase. Cell lysates were harvested using Passive Lysis Buffer (Promega) and 25 μg of protein was incubated at 37° C. for 6 hours with 50,000 cpm of [^3H]-acetyl histone and 1 mM PMSF in HDAC Assay Buffer (Upstate). Released [^3H]-acetate was extracted with ethyl acetate (31) and counted on a Beckman LS3801 scintillation counter.
# HITB5 SMC's = experiment: Apoptosis by TUNEL; type: cell-based, human; details: PBEF-overexpressing HITB5 SMCs; p<0.01
# Protocol: Cell Proliferation, DNA Synthesis, and Apoptosis were also evaluated. To assess SMC proliferation, cells were plated at a density of 3000 cells per cm^2 and cultured in M199 containing 5% FBS. Triplicate wells were harvested at the designated times and counted using a hemacytometer. To quantify DNA synthesis, cells in log-phase growth were incubated for 12 hours with [^3H]thymidine (10 μCi/mL) and TCA-precipitable counts determined as described (5). Thymidine incorporation was expressed relative to DNA content, quantified by spectrofluorimetry of an aliquot of cell lysate incubated with 500 μg/ml Hoechst 33258. Apoptosis was assessed in SMCs seeded on glass coverslips by in situ end-labeling of DNA fragments using terminal deoxynucleotide transferase and fluorescein 12-dUTP (Promega) (5). Cells were fixed with 4% paraformaldehyde and counterstained with Hoechst 33258.
# [1] = system: microvessels invested by human SMC's; experiment: Human-mouse chimeric angiogenesis in vivo (matrigel implants); design: species or system SCID mice; details: matrigel implants with PBEF-overexpressing SMC's, 8 days; p<0.05 vs vector
# Protocol: Human-Mouse Chimeric Angiogenesis in vivo was measured. HITC6 SMCs in M199 with 10% FBS and fibroblast growth factor-2 (FGF-2) were mixed with an equal volume of growth factor-reduced matrigel (BD Discovery Labware) yielding final concentrations of 5×10^5 cells/ml and 250 ng/ml FGF-2. The cell-matrigel suspension (500 μl) was subcutaneously injected into the abdomen of mice with severe combined immunodeficiency syndrome (SCID). After 8 days, implants were harvested, fixed for 8 h in Tris-buffered zinc (32), and paraffin-embedded tissues were sectioned at 5 μm. […] Tissue was then incubated with rabbit anti-GFP (1:200, BD Clontech, Palo Alto, Calif.) and bound primary antibody detected with alkaline phosphatase-conjugated goat anti-rabbit secondary antibody and visualized with red alkaline phosphatase substrate (Vector). […]
# Human-Mouse Chimeric Angiogenesis in vivo was measured. […] Tissue was then incubated with rabbit anti-GFP (1:200, BD Clontech, Palo Alto, Calif.) and bound primary antibody detected with alkaline phosphatase-conjugated goat anti-rabbit secondary antibody and visualized with red alkaline phosphatase substrate (Vector). […]
substance,measurement,setting,value
"PBEF: 52-55 kD protein, rate-limiting enzyme for NAD+ biosynthesis from nicotinamide; tested by retroviral cDNA overexpression in cells",increase in SIRT1 activity,SIRT1,86±4%
same,total HDAC activity vs HITC6-Vector SMC's,HDAC,significantly greater
same,proportion of apoptotic SMC's relative to HITB5-EGFP SMC's,HITB5 SMC's,approximately half
same,proportion of microvessels invested by one or more human SMC's,[1],17.8±2.5%
